In test [1] the target is T1, 5-HT6 receptor (Homo sapiens, UniProt P50406).
T1 construct: purchased PerkinElmer
Description: Radioligand binding assay, serotoninergic 5-HT6 receptors. Particulars: binding assay result in %, Table 5a. The text has this: (§1) The specific ligand binding to the receptors is defined as the difference between the total binding and the non-specific binding determined in the presence of the excess of unlabelled ligand.
(§2) The results are expressed as a percent of control specific binding ((measured specific binding/control specific binding)×100) and as a percent inhibition of control specific binding (100−((measured specific binding/control specific binding)×100)) obtained in the presence of the test compounds. The specific ligand binding to the receptors is defined as the difference between the total binding and the nonspecific binding determined in the presence of an excess of unlabelled ligand. Scintillation counting was the method of detection of ligand binding. The IC50 values (concentration causing a half-maximal inhibition of control specific binding) were determined by non-linear regression analysis of the competition curves generated with mean replicate values using Hill equation curve fitting (Y=D+[(A−D)/(1+(C/C50)nH)], where Y=specific binding, D=minimum specific binding, A=maximum specific binding, C=compound concentration, C50=IC50, and nH=slope factor). This analysis was performed using a software developed at Cerep (Hill software) and validated by comparison with data generated by the commercial software SigmaPlot® 4.0 for Windows® (© 1997 by SPSS Inc.). The inhibition constants (Ki) were calculated using the Cheng Prusoff equation (Ki=IC50/(1+(L/KD)), where L=concentration of radioligand in the assay, and KD=affinity of the radioligand for the receptor). A scatchard plot was used to determine the Kd.
(§3) Experimental conditions for tests are given in Table 4, and results of tests for representative compounds of the invention are given in Table 5a and 5b (receptors 5-HT1A, 5-HT2A, 5-HT6 and 5-HT7) and in Table 6 (receptors 5-HT2C).
5-HT6: Bryan L. Roth. Assay Protocol Book. University of North Carolina At Chapel Hill. National Institute of Mental Health. Psychoactive Drug Screening Program. Available on-line at 31 Aug. 2008: http://pdsp.med.unc.edu/UNC-CH %20Protocol%20Book.pdf

The target of test [2] is dopaminergic receptors D3 (Homo sapiens, UniProt P35462). Description: Radioligand binding assay, dopaminergic D3 receptors. The note with it: test compound 1×10^−6 M.
Sequence of dopaminergic receptors D3 (P35462 whole entry): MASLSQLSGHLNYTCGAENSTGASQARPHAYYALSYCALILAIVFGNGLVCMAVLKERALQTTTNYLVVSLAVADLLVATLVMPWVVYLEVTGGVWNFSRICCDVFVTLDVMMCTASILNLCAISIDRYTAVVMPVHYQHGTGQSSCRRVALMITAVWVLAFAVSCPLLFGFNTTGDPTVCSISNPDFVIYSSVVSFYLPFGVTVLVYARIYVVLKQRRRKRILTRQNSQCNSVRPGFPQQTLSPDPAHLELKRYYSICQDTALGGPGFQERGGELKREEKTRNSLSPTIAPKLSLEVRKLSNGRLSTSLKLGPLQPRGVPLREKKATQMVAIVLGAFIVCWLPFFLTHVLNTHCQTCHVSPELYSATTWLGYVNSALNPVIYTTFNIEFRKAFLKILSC
Description: as §1, §2
(§4) Experimental conditions for tests are given in Table 1, the results of tests for representative compounds are given in Tables 2a and 2b (receptors D2 and D3) and in Table 3 (receptors D4).

Test [3] deals with T2, serotonin transporter (SERT) (Homo sapiens, UniProt P31645).
T2 construct: expressed in transfected cells; host or cells: CHO cells
T2 sequence (P31645 whole entry): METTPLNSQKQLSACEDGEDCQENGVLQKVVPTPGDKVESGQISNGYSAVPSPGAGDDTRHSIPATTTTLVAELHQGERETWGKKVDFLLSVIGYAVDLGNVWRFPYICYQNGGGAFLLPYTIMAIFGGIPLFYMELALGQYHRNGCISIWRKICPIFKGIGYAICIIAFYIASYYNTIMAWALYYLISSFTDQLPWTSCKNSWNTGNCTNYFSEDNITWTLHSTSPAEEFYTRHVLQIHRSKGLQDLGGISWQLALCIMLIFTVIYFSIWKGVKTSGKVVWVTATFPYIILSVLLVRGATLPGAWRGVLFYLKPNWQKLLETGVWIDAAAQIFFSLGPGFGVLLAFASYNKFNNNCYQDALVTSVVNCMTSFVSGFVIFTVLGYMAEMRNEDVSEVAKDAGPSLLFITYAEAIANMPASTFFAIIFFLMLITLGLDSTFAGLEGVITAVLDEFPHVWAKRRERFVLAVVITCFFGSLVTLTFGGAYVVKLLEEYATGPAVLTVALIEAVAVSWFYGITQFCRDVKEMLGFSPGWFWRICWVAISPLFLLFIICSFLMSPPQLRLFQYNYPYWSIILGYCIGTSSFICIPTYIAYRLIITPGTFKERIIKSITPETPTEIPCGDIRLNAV
Kind of test: Radioligand binding assay, serotonin transporter (SERT). Particulars: binding assay, test compound 1×10^−6 M.
Description: as §1, §2
Experimental conditions for tests are given in Table 12, and results of tests for representative compounds are given in Tables 13a and 13b.

The target of test [4] is dopaminergic receptors D2 (Homo sapiens, UniProt P14416). Kind of test: Radioligand binding assay, dopaminergic D2 receptors. The note with it: binding assay, test compound 1×10^−6 M.
Sequence of dopaminergic receptors D2 (P14416 whole entry): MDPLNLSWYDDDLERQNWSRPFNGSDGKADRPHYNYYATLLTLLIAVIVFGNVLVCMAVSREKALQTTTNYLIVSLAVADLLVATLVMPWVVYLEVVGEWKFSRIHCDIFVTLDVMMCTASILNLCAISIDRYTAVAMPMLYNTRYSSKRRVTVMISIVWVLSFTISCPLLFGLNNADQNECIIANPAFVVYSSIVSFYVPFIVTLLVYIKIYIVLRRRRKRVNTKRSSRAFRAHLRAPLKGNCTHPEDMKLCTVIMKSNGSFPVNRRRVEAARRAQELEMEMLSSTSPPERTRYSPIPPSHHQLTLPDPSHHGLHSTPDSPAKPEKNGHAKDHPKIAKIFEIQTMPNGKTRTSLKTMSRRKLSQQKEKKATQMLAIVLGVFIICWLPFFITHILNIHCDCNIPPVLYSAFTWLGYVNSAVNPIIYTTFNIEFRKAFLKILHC
Description: as §1, §2, §4

The target in test [5] is T3, 5-HT7 receptor (Homo sapiens, UniProt P34969).
T3 construct: purchased PerkinElmer
T3 sequence (P34969 whole entry): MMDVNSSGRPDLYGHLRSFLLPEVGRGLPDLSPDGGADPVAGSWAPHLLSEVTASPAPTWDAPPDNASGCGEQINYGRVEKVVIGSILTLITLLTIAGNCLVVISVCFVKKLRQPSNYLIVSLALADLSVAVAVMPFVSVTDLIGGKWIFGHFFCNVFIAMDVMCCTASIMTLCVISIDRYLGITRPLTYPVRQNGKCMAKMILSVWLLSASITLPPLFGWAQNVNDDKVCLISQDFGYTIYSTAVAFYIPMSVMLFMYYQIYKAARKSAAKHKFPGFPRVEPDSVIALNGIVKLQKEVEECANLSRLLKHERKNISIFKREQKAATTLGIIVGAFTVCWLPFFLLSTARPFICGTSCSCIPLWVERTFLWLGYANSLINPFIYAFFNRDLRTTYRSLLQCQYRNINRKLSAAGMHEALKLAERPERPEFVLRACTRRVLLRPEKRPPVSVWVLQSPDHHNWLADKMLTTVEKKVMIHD
Description: Radioligand binding assay, serotoninergic 5-HT7 receptors. Particulars: binding assay result in %, Table 5a.
Description: as §1, §2, §3
5-HT7: Bryan L. Roth. Assay Protocol Book. University of North Carolina At Chapel Hill. National Institute of Mental Health. Psychoactive Drug Screening Program. Available on-line at 31 Aug. 2008: http://pdsp.med.unc.edu/UNC-CH %20Protocol%20Book.pdf

Test [6] concerns the target T4, 5-HT2A receptor (Homo sapiens, UniProt P28223).
T4 construct: purchased PerkinElmer
Kind of test: Radioligand binding assay, serotoninergic 5-HT2A receptors. Particulars: binding assay result in %, Table 5a.
Description: as §1, §2
5-HT2A: Bryan L. Roth. Assay Protocol Book. University of North Carolina At Chapel Hill. National Institute of Mental Health. Psychoactive Drug Screening Program. Available on-line at 31 Aug. 2008: http://pdsp.med.unc.edu/UNC-CH%20Protocol%20Book.pdf

The target of test [7] is T5, 5-HT1A receptor (rat hippocampus) (Rattus norvegicus, UniProt P19327).
T5 construct: hippocampus; from tissue; host or cells: rat hippocampus
T5 sequence (P19327 1-422): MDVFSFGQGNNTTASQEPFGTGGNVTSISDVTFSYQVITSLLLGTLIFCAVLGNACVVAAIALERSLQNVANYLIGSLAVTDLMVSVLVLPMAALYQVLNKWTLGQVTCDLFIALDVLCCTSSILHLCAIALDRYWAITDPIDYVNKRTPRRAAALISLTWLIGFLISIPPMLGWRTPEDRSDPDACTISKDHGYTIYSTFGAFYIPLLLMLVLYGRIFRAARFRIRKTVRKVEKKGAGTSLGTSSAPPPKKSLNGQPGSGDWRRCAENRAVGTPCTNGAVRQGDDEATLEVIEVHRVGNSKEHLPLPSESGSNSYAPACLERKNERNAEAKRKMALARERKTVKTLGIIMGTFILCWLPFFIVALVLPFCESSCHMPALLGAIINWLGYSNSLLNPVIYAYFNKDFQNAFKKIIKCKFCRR
Description: Radioligand binding assay, serotoninergic 5-HT1A receptors. Particulars: binding assay result in %, Table 5a.
Description: as §1, §2, §3

T4 sequence (P28223 whole entry): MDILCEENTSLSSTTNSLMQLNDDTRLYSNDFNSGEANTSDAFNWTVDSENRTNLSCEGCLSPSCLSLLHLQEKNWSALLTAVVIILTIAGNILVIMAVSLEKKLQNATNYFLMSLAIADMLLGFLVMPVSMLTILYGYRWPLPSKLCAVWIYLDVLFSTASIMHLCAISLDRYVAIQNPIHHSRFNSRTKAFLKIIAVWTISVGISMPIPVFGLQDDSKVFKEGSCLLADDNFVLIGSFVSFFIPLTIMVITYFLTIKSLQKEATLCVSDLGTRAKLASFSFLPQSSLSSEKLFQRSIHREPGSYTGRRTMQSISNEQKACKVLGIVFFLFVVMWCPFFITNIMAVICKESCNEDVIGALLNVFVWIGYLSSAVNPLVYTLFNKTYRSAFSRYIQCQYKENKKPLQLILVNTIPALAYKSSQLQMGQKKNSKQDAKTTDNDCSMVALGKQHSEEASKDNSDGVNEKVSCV
T1 sequence (P50406 whole entry): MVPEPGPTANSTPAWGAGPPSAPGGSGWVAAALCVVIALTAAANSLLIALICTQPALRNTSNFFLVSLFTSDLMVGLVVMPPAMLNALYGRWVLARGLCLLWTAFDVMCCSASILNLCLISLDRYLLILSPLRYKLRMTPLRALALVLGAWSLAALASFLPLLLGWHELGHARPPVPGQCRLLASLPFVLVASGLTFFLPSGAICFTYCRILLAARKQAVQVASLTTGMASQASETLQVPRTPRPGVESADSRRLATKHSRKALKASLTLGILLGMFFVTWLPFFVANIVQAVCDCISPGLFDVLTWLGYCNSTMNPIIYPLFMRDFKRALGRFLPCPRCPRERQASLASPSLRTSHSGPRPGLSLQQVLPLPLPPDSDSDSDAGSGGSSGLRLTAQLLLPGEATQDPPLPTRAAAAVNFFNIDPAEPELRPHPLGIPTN

As usually defined, the inhibition is the change of the read-out against control, counted positive when it falls. With `CC(C)(C)c1ccc(S(=O)(=O)NC2CCN(CCCc3noc4cc(F)ccc34)C2)cc1` (stereo not shown) [Compound 14, 4-tert-Butyl-N-[1-[3-(6-fluoro-1,2-benzoxazol-3-yl)propyl]pyrrolidin-3-yl]benzenesulphonamide], the inhibition at 1 µM in test [1] is 82%; in test [2], 90%; in test [3] it was -3%; in test [4] it was 100%; in test [5] it was 76%; in test [6], 80%. For the same molecule, the inhibition at 1 µM in test [7] is 24%.

`O=S(=O)(NCC1CCN(CCCc2noc3cc(F)ccc23)C1)c1ccc(F)cc1` (stereo not shown) [Compound 252, 4-Fluoro-N-[[1-[3-(6-fluoro-1,2-benzoxazol-3-yl)propyl]pyrrolidin-3-yl]methyl]benzenesulphonamide]: the inhibition at 1 µM in test [1] was 75%; in test [2] it was 43%; in test [3], -2%; in test [4] it was 36%; in test [5], 90%; in test [6], 89%. Also, in test [7], the inhibition at 1 µM was 44%.

With `O=S(=O)(NCC1CCN(CCCc2noc3cc(F)ccc23)C1)c1ccccc1` (stereo not shown) [Compound 245, N-[[1-[3-(6-Fluoro-1,2-benzoxazol-3-yl)propyl]pyrrolidin-3-yl]methyl]benzenesulphonamide], the inhibition at 1 µM in test [1] is 57%; in test [2], 40%; in test [3], 18%; in test [4], -4%; in test [5], 81%; in test [6], 73%. Further, the inhibition at 1 µM in test [7] worked out at 35%.

Take `Cn1ccc2c(S(=O)(=O)NC3CCN(CCCc4noc5cc(F)ccc45)C3)cccc21` (stereo not shown) [Compound 219, N-[1-[3-(6-Fluoro-1,2-benzoxazol-3-yl)propyl]pyrrolidin-3-yl]-1-methyl-indole-4-sulphonamide]: the inhibition at 1 µM turned out to be 94% in test [1]; 81% in test [2]; 52% in test [3]; 96% in test [4]; 96% in test [5]; 99% in test [6]. Moreover, the inhibition at 1 µM in test [7] came to 85%.

`COc1cccc(S(=O)(=O)NCC2CCN(CCCc3noc4cc(F)ccc34)C2)c1` (stereo not shown) [Compound 250, N-[[1-[3-(6-Fluoro-1,2-benzoxazol-3-yl)propyl]pyrrolidin-3-yl]methyl]-3-methoxy-benzenesulphonamide]: the inhibition at 1 µM was 74% in test [1]; 55% in test [2]; 23% in test [3]; 18% in test [4]; 91% in test [5]; 87% in test [6]. Also, in test [7], the inhibition at 1 µM was 30%.

On to `O=S(=O)(NCC1CCN(CCCc2noc3cc(F)ccc23)C1)c1cccc(O)c1` (stereo not shown) [Compound 254, N-[[1-[3-(6-Fluoro-1,2-benzoxazol-3-yl)propyl]pyrrolidin-3-yl]methyl]-3-hydroxy-benzenesulphonamide], for which the inhibition at 1 µM in test [1] came out at 78%; in test [2] it was 34%; in test [3], 10%; in test [4], 75%; in test [5], 102%; in test [6] it was 98%. The inhibition at 1 µM in test [7] was 49%.

As for `O=S(=O)(NCC1CCN(CCCc2noc3cc(F)ccc23)C1)c1ccc2c(c1)CCO2` (stereo not shown) [Compound 256, N-[[1-[3-(6-Fluoro-1,2-benzoxazol-3-yl)propyl]pyrrolidin-3-yl]methyl]-2,3-dihydrobenzofuran-5-sulphonamide], the inhibition at 1 µM in test [1] stood at 74%; in test [2] it was 25%; in test [3] it was 40%; in test [4] it was 37%; in test [5], 92%; in test [6], 87%. Also, the inhibition at 1 µM in test [7] came to 29%.

“3-tert-Butyl-N-[[1-[3-(6-fluoro-1,2-benzoxazol-3-yl)propyl]pyrrolidin-3-yl]methyl]benzenesulphonamide [Compound 249]”: the “5-HT6 [%]” value in test [1] is given as 58%. Besides, the “D3 [%]” value in test [2] came out at 36%. Also, in test [3], the “SERT [%]” value is given as 28%. For the same molecule, the “D2 [%]” value in test [4] was 4%. Moreover, the “5-HT7 [%]” value in test [5] is 87%. Also, in test [6], the “5-HT2A [%]” value amounted to 79%. In addition, the “5-HT1A [%]” value in test [7] is listed as 23%.

`CC(C)(C)c1ccc(S(=O)(=O)NC2CCN(CCCc3noc4cc(F)ccc34)CC2)cc1` [Compound 328, 4-tert-Butyl-N-[1-[3-(6-fluoro-1,2-benzoxazol-3-yl)propyl]-4-piperidyl]benzenesulphonamide]: the inhibition at 1 µM in test [1] worked out at 94%; in test [2] it was 40%; in test [3] it was 25%; in test [4] it was 64%; in test [5], 90%; in test [6], 96%. The inhibition at 1 µM in test [7] was found to be 49%.

Regarding “N-[[1-[3-(6-Fluoro-1,2-benzoxazol-3-yl)propyl]pyrrolidin-3-yl]methyl]-1-methyl-indole-5-sulphonamide [Compound 258]”, in test [1], the “5-HT6 [%]” value came out at 89%. For the same molecule, in test [2], the “D3 [%]” value was found to be 43%. The “SERT [%]” value in test [3] is listed as 25%. The “D2 [%]” value in test [4] turned out to be 92%. For the same molecule, the “5-HT7 [%]” value in test [5] came out at 78%. Further, the “5-HT2A [%]” value in test [6] amounted to 98%. Moreover, the “5-HT1A [%]” value in test [7] is 64%.

`COc1cccc(S(=O)(=O)NC2CCN(CCCc3noc4cc(F)ccc34)C2)c1` (stereo not shown) [Compound 17, N-[1-[3-(6-Fluoro-1,2-benzoxazol-3-yl)propyl]pyrrolidin-3-yl]-3-methoxybenzenesulphonamide]: the inhibition at 1 µM stood at 76% in test [1]; 20% in test [2]; 52% in test [3]; 80% in test [4]; 80% in test [5]; 94% in test [6]. Moreover, the inhibition at 1 µM in test [7] stood at 23%.

`O=S(=O)(NCC1CCN(CCCc2noc3cc(F)ccc23)C1)c1ccc(F)c(Cl)c1` (stereo not shown) [Compound 263, 3-Chloro-4-fluoro-N-[[1-[3-(6-fluoro-1,2-benzoxazol-3-yl)propyl]pyrrolidin-3-yl]methyl]benzenesulphonamide]: the inhibition at 1 µM in test [1] amounted to 85%; in test [2], 71%; in test [3] it was 11%; in test [4] it was 59%; in test [5], 92%; in test [6], 97%. In addition, the inhibition at 1 µM in test [7] was determined as 19%.

On to `O=S(=O)(NCC1CN(CCCc2noc3cc(F)ccc23)C1)c1ccc(Cl)s1` [Compound 155, 5-Chloro-N-[[1-[3-(6-fluoro-1,2-benzoxazol-3-yl)propyl]azetidin-3-yl]methyl]thiophene-2-sulphonamide], for which the inhibition at 1 µM in test [1] was 62%; in test [2], 68%; in test [3], -12%; in test [4], 61%; in test [5], 82%; in test [6], 89%. In test [7], the inhibition at 1 µM is 42%.

Values taken from patent publication US20140135310A1, “SULPHONAMIDE DERIVATIVES OF ALICYCLIC AMINES FOR THE TREATMENT OF CENTRAL NERVOUS SYSTEM DISEASES” (Adamed Sp. z o.o., priority 2011, published 2014).
